In brackets after ≈: the same amount, converted by molar mass.
Assays:
Assay type in all cases: cell-based
[1] = tested on: C. albicans DPL1015 (DP-A15); test: microbe, parasite or virus in culture; settings: strain no. 2, DPL1015 (DP-A15), parental SC5314, FKS1 mutant HS1-S645S/P
Description: (§1) The antifungal activities of compounds 1a, 1 and 2 (collectively: caspofungin derivatives) were compared to that of caspofungin and CSF-BOD using a panel of 49 C. albicans and C. glabrata strains (Tables 1 and 2). The panel included ATCC strains and clinical isolates as well a collection of caspofungin-responsive strains and their corresponding isogenic caspofungin-resistant derivatives, constructed by introducing point mutations within and near the defined hotspots in the FKS1 and/or FKS2 genes of the GS complex. Minimal inhibitory concentration (MIC) values for all strains were determined using the broth double dilution method and are summarized in FIG. 2 and Table 2. […] The clinical breakpoints (threshold) for caspofungin-resistance in C. albicans and C. glabrata are 1 μg/mL and 0.5 μg/mL, respectively.

C. albicans SN95 = test: microbe, parasite or virus in culture; settings: strain no. 8, SN95, parental RM1000
Description: as §1

[2] = tested on: C. albicans T-2068 (DP-C42); test: microbe, parasite or virus in culture; settings: strain no. 4, T-2068 (DP-C42), parental SC5314, FKS1 HS1-F641S mutation
Description: as §1

C. glabrata TGL00091 = test: microbe, parasite or virus in culture; settings: strain no. 35, TGL00091, FKS mutant
Description: as §1

C. glabrata TGL00253 = test: microbe, parasite or virus in culture; settings: strain no. 20, TGL00253, parental CST109, FKS2 mutant
Description: as §1

C. glabrata TGL00256 = test: microbe, parasite or virus in culture; settings: strain no. 24, TGL00256, parental CST34, FKS mutant
Description: as §1

C. glabrata TGL00258 = test: microbe, parasite or virus in culture; settings: strain no. 25, TGL00258, parental CST34, FKS mutant
Description: as §1

C. glabrata TGL00263 = test: microbe, parasite or virus in culture; settings: strain no. 28, TGL00263, parental CST78, FKS mutant
Description: as §1

C. glabrata TGL00264 = test: microbe, parasite or virus in culture; settings: strain no. 29, TGL00264, parental CST78, FKS mutant
Description: as §1

C. glabrata TGL00275 = test: microbe, parasite or virus in culture; settings: strain no. 32, TGL00275, FKS mutant
Description: as §1

C. glabrata TGL00277 = test: microbe, parasite or virus in culture; settings: strain no. 33, TGL00277, parental EF1620, FKS mutant
Description: as §1

C. glabrata TGL00293 = test: microbe, parasite or virus in culture; settings: strain no. 37, TGL00293, parental BG2, FKS mutant
Description: as §1

C. glabrata TGL00294 = test: microbe, parasite or virus in culture; settings: strain no. 38, TGL00294, parental BG2, FKS mutant
Description: as §1

C. albicans ATCC 10231 = test: MIC, broth double dilution; settings: strain no. 11, C. albicans ATCC 10231
Description: as §1

C. albicans ATCC 24433 = test: MIC, broth double dilution; settings: strain no. 6, C. albicans ATCC 24433
Description: as §1

C. albicans BWP17 = test: MIC, broth double dilution; settings: strain no. 9, BWP17, parental RM1000
Description: as §1

C. albicans SC5314 = test: MIC, broth double dilution; settings: strain no. 1, C. albicans SC5314, WT
Description: as §1

C. albicans SN152 = test: MIC, broth double dilution; settings: strain no. 5, C. albicans SN152
Description: as §1

C. glabrata ATCC 15126 = test: MIC, broth double dilution; settings: strain no. 41, C. glabrata ATCC 15126
Description: as §1

C. glabrata ATCC 2001 = test: MIC, broth double dilution; settings: strain no. 39, C. glabrata ATCC 2001
Description: as §1

C. glabrata ATCC 66032 = test: MIC, broth double dilution; settings: strain no. 40, C. glabrata ATCC 66032
Description: as §1

C. glabrata ATCC 90030 = test: MIC, broth double dilution; settings: strain no. 16, C. glabrata ATCC 90030, WT
Description: as §1

C. glabrata BG2 = test: MIC, broth double dilution; settings: strain no. 34, C. glabrata BG2
Description: as §1

C. glabrata CST109 = test: MIC, broth double dilution; settings: strain no. 18, C. glabrata CST109 (parental)
Description: as §1

C. glabrata CST34 = test: MIC, broth double dilution; settings: strain no. 21, C. glabrata CST34 (parental)
Description: as §1

C. glabrata EF1620 = test: MIC, broth double dilution; settings: strain no. 31, C. glabrata EF1620
Description: as §1

[3] = tested on: C. glabrata T-190 (11-304); test: MIC, broth double dilution; settings: strain no. 42, T-190 (11-304), clinical isolate
Description: as §1

[4] = tested on: C. glabrata T-191 (11-331); test: MIC, broth double dilution; settings: strain no. 43, T-191 (11-331), clinical isolate
Description: as §1

C. glabrata T-192 (1775) = test: MIC, broth double dilution; settings: strain no. 44, T-192 (1775), clinical isolate
Description: as §1

[5] = tested on: C. glabrata T-193 (11-282); test: MIC, broth double dilution; settings: strain no. 45, T-193 (11-282), clinical isolate
Description: as §1

[6] = tested on: C. glabrata T-982 (11-181); test: MIC, broth double dilution; settings: strain no. 46, T-982 (11-181), clinical isolate
Description: as §1

[7] = tested on: C. glabrata T-983 (11-079); test: MIC, broth double dilution; settings: strain no. 47, T-983 (11-079), clinical isolate
Description: as §1

[8] = tested on: C. glabrata T-984 (11-078); test: MIC, broth double dilution; settings: strain no. 48, T-984 (11-078), clinical isolate
Description: as §1

SMILES | MIC [1] [µg/mL] | MIC (C. albicans SN95) [µg/mL] | MIC [2] [µg/mL] | MIC (C. glabrata TGL00091) [µg/mL] | MIC (C. glabrata TGL00253) [µg/mL] | MIC (C. glabrata TGL00256) [µg/mL] | MIC (C. glabrata TGL00258) [µg/mL] | MIC (C. glabrata TGL00263) [µg/mL] | MIC (C. glabrata TGL00264) [µg/mL] | MIC (C. glabrata TGL00275) [µg/mL] | MIC (C. glabrata TGL00277) [µg/mL] | MIC (C. glabrata TGL00293) [µg/mL] | MIC (C. glabrata TGL00294) [µg/mL] | MIC (C. albicans ATCC 10231) [µg/mL] | MIC (C. albicans ATCC 24433) [µg/mL] | MIC (C. albicans BWP17) [µg/mL] | MIC (C. albicans SC5314) [µg/mL] | MIC (C. albicans SN152) [µg/mL] | MIC (C. glabrata ATCC 15126) [µg/mL] | MIC (C. glabrata ATCC 2001) [µg/mL] | further results
CC[C@H](C)C[C@H](C)CCCCCCCCC(=O)N[C@H]1C[C@@H](O)[C@@H](NCCN)NC(=O)[C@@H]2[C@@H](O)CCN2C(=O)[C@H]([C@H](O)CCN)NC(=O)[C@H]([C@H](O)[C@@H](O)c2ccc(OCc3cn(CCCNc4ccc([N+](=O)[O-])c5nonc45)nn3)cc2)NC(=O)[C@@H]2C[C@@H](O)CN2C(=O)[C@H]([C@@H](C)O)NC1=O [Compound 2] | 32 (≈ 22.9 µM) | 2 (≈ 1.43 µM) | 64 (≈ 45.9 µM) | >64 | >64 | 64 (≈ 45.9 µM) | >64 | >64 | >64 | >64 | >64 | >64 | >64 | 2 (≈ 1.43 µM) | 1 (≈ 0.717 µM) | 1 (≈ 0.717 µM) | 1 (≈ 0.717 µM) | 1 (≈ 0.717 µM) | 4 (≈ 2.87 µM) | 2 (≈ 1.43 µM) | MIC (C. glabrata ATCC 66032): 2 µg/mL (≈ 1.43 µM); MIC (C. glabrata ATCC 90030): 4 µg/mL (≈ 2.87 µM); MIC (C. glabrata BG2): 4 µg/mL (≈ 2.87 µM); MIC (C. glabrata CST109): 4 µg/mL (≈ 2.87 µM); MIC (C. glabrata CST34): 4 µg/mL (≈ 2.87 µM); MIC (C. glabrata EF1620): 2 µg/mL (≈ 1.43 µM); MIC [3]: 2 µg/mL (≈ 1.43 µM); MIC [4]: 2 µg/mL (≈ 1.43 µM); MIC (C. glabrata T-192 (1775)): 2 µg/mL (≈ 1.43 µM); MIC [5]: 4 µg/mL (≈ 2.87 µM); MIC [6]: 2 µg/mL (≈ 1.43 µM); MIC [7]: 2 µg/mL (≈ 1.43 µM); MIC [8]: 2 µg/mL (≈ 1.43 µM)
CC[C@H](C)C[C@H](C)CCCCCCCCC(=O)N[C@H]1C[C@@H](O)[C@@H](NCCN)NC(=O)[C@@H]2[C@@H](O)CCN2C(=O)[C@H]([C@H](O)CCN)NC(=O)[C@H]([C@H](O)[C@@H](O)c2ccc(OCc3cn(CCCNC(=O)c4ccc(-c5c6ccc(=[N+](C)C)cc-6oc6cc(N(C)C)ccc56)c(C(=O)[O-])c4)nn3)cc2)NC(=O)[C@@H]2C[C@@H](O)CN2C(=O)[C@H]([C@@H](C)O)NC1=O [Compound 1] | 16 (≈ 9.73 µM) | 0.5 (≈ 0.304 µM) | 64 (≈ 38.9 µM) | >64 | >64 | 4 (≈ 2.43 µM) | >64 | >64 | >64 | 64 (≈ 38.9 µM) | >64 | >64 | >64 | 0.5 (≈ 0.304 µM) | 0.5 (≈ 0.304 µM) | 0.25 (≈ 0.152 µM) | 0.25 (≈ 0.152 µM) | 0.25 (≈ 0.152 µM) | 1 (≈ 0.608 µM) | 1 (≈ 0.608 µM) | MIC (C. glabrata ATCC 66032): 1 µg/mL (≈ 0.608 µM); MIC (C. glabrata ATCC 90030): 1 µg/mL (≈ 0.608 µM); MIC (C. glabrata BG2): 1 µg/mL (≈ 0.608 µM); MIC (C. glabrata CST109): 1 µg/mL (≈ 0.608 µM); MIC (C. glabrata CST34): 0.5 µg/mL (≈ 0.304 µM); MIC (C. glabrata EF1620): 0.5 µg/mL (≈ 0.304 µM); MIC [3]: 0.5 µg/mL (≈ 0.304 µM); MIC [4]: 0.5 µg/mL (≈ 0.304 µM); MIC (C. glabrata T-192 (1775)): 0.5 µg/mL (≈ 0.304 µM); MIC [5]: 1 µg/mL (≈ 0.608 µM); MIC [6]: 0.5 µg/mL (≈ 0.304 µM); MIC [7]: 0.5 µg/mL (≈ 0.304 µM); MIC [8]: 0.5 µg/mL (≈ 0.304 µM)
C#CCOc1ccc([C@H](O)[C@@H](O)[C@@H]2NC(=O)[C@@H]3C[C@@H](O)CN3C(=O)[C@H]([C@@H](C)O)NC(=O)[C@@H](NC(=O)CCCCCCCC[C@@H](C)C[C@@H](C)CC)C[C@@H](O)[C@@H](NCCN)NC(=O)[C@@H]3[C@@H](O)CCN3C(=O)[C@H]([C@H](O)CCN)NC2=O)cc1 [Compound 1a] | 8 (≈ 7.07 µM) | 0.125 (≈ 0.11 µM) | 16 (≈ 14.1 µM) | >64 | >64 | 2 (≈ 1.77 µM) | >64 | >64 | >64 | 16 (≈ 14.1 µM) | >64 | >64 | >64 | 0.125 (≈ 0.11 µM) | 0.125 (≈ 0.11 µM) | 0.063 (≈ 0.0557 µM) | 0.125 (≈ 0.11 µM) | 0.063 (≈ 0.0557 µM) | 1 (≈ 0.884 µM) | 0.5 (≈ 0.442 µM) | MIC (C. glabrata ATCC 66032): 1 µg/mL (≈ 0.884 µM); MIC (C. glabrata ATCC 90030): 1 µg/mL (≈ 0.884 µM); MIC (C. glabrata BG2): 0.5 µg/mL (≈ 0.442 µM); MIC (C. glabrata CST109): 1 µg/mL (≈ 0.884 µM); MIC (C. glabrata CST34): 0.25 µg/mL (≈ 0.221 µM); MIC (C. glabrata EF1620): 0.5 µg/mL (≈ 0.442 µM); MIC [3]: 0.5 µg/mL (≈ 0.442 µM); MIC [4]: 0.25 µg/mL (≈ 0.221 µM); MIC (C. glabrata T-192 (1775)): 0.5 µg/mL (≈ 0.442 µM); MIC [5]: 1 µg/mL (≈ 0.884 µM); MIC [6]: 0.25 µg/mL (≈ 0.221 µM); MIC [7]: 0.25 µg/mL (≈ 0.221 µM); MIC [8]: 0.5 µg/mL (≈ 0.442 µM)

Reference: patent US20230173018A1, “CASPOFUNGIN DERIVATIVES AND ASSAYS FOR EVALUATING ANTIFUNGAL TREATMENT EFFICACY” (priority 2020, published 2023)
